The values that follow come from patent US5763453A, “Condensed indan derivatives and salts thereof” (Taiho Pharmaceutical Co., Ltd., priority 1995, dated 1998).

Values after ≈ are worked out from the molar mass of the structure shown. Structures can show the parent of a compound that is named as a salt.

The test system of the test is P 388 mouse leukemia cell line. The test is described as follows: Cytocidal effect on P 388 mouse leukemia cells (crystal violet cytometry, three days' incubation). In kind it is cell-based. To be noted: P388, 72 h, 2×10^3 cells/well, read-out: IC50 (concentration at which the cell count is 50% less than that of the control). How it is done: Cytocidal Effect A 96-well plate was innoculated with 2×10^3 cells/well of P 388 mouse leukemia cell line. The compound of the present invention was dissoved in purified water or dimethylsulfoxide, and the solution was diluted with medium to various concentrations and placed into respective wells and incubated. After three day's incubation, the plate was fixed with glutaraldehyde and stained with crystal violet for cytometry.
Take `COc1ccc2c(c1)C(=O)c1c-2nc2ccccc2c1NCCN(C)C.Cl.Cl` [Compound 1, 10-(((dimethylamino)ethyl)amino)-2-methoxy-11H-indeno[1,2-b]quinolin-11-one dihydrochloride]: the IC50 stood at 0.34 µg/mL.

Consider `CN(C)CCNc1c2c(nc3ccccc13)-c1ccc(O)cc1C2=O.Cl.Cl` [Compound 2, 10-(((dimethylamino)ethyl)amino)-2-hydroxy-11H-indeno[1,2-b]quinolin-11-one dihydrochloride], for which the IC50 is 0.15 µg/mL.

For `CN(C)CCNc1c2c(nc3ccccc13)-c1cc(O)ccc1C2=O` [Compound 3-a], the IC50 was found to be 0.15 µg/mL (≈ 0.45 µM).

Regarding `COc1ccc2c(NCCN(C)C)c3c(nc2c1)-c1ccccc1C3=O` [Compound 4], the IC50 was found to be 0.25 µg/mL (≈ 0.72 µM).

As to `CN(C)CCNc1c2c(nc3cc(O)ccc13)-c1ccccc1C2=O` [Compound 5], the IC50 was determined as 0.052 µg/mL (≈ 0.156 µM).

For the molecule `CN(C)CCCNc1c2c(nc3cc(O)ccc13)-c1ccccc1C2=O` [Compound 7-a], the IC50 was 0.16 µg/mL (≈ 0.461 µM).

With `CCN(CC)CCSc1c2c(nc3ccc(O)cc13)-c1ccccc1C2=O` [Compound 10-a], the IC50 was 0.42 µg/mL (≈ 1.11 µM).

Regarding `CCN(CC)CCOc1c2c(nc3ccc(O)cc13)-c1ccccc1C2=O` [Compound 11, 10-(((diethylamino)ethoxy)-8-hydroxy-11H-indeno[1,2-b]quinolin-11-one hydrochloride], the IC50 is 0.096 µg/mL.

In the case of `CN(C)CCNc1c2c(nc3ccc(O)cc13)-c1ccccc1C2=O` [Compound 12], the IC50 turned out to be 0.16 µg/mL (≈ 0.48 µM).

Regarding `COc1ccc2nc3c(c(N4CCN(C)CC4)c2c1)C(=O)c1ccccc1-3` [Compound 13], the IC50 is 0.37 µg/mL (≈ 1.03 µM).

Consider `CN1CCN(c2c3c(nc4ccc(O)cc24)-c2ccccc2C3=O)CC1` [Compound 14], for which the IC50 was found to be 0.22 µg/mL (≈ 0.637 µM).

With `O=C1c2ccccc2-c2nc3ccc(O)cc3c(N3CCC(N4CCCCC4)CC3)c21` [Compound 16-a], the IC50 worked out at 0.43 µg/mL (≈ 1.04 µM).
